In patent publication US10945432B2, “Active compound combinations comprising a (thio)carboxamide derivative and a fungicidal compound” (BAYER CROPSCIENCE AKTIENGESELLSCHAFT, priority 2013, dated 2021):

Columns and labels:
Format in all cases: in vivo
Venturia inaequalis = experiment: Venturia test (apples)/preventive; conditions: 10 days after inoculation
Protocol: (§1) • Solvent: 24.5 parts by weight of acetone • 24.5 parts by weight of dimethylacetamide • Emulsifier: 1 part by weight of alkylaryl polyglycol ether
(§2) To produce a suitable preparation of active compound, 1 part by weight of active compound is mixed with the stated amounts of solvent and emulsifier, and the concentrate is diluted with water to the desired concentration.
To test for preventive activity, young plants are sprayed with the preparation of active compound at the stated rate of application. After the spray coating has dried on, the plants are inoculated with an aqueous conidia suspension of the causal agent of apple scab (Venturia inaequalis) and then remain for 1 day in an incubation cabinet at approximately 20° C. and a relative atmospheric humidity of 100%. The plants are then placed in a greenhouse at approximately 21° C. and a relative atmospheric humidity of approximately 90%.
The test is evaluated 10 days after the inoculation. 0% means an efficacy which corresponds to that of the untreated control, while an efficacy of 100% means that no disease is observed.

Pyrenophora teres = experiment: Pyrenophora teres-test (barley)/preventive; conditions: Table C1, 8 days after inoculation
Protocol: (§3) • Solvent: 49 parts by weight of N,N-dimethylacetamide • Emulsifier: 1 part by weight of alkylaryl polyglycol ether
(§4) To produce a suitable preparation of active compound, 1 part by weight of active compound or active compound combination is mixed with the stated amounts of solvent and emulsifier, and the concentrate is diluted with water to the desired concentration.
(§5) To test for preventive activity, young plants are sprayed with the preparation of active compound or active compound combination at the stated rate of application. After the spray coating has been dried, the plants are sprayed with a spore suspension of Pyrenophora teres. The plants remain for 48 hours in an incubation cabinet at approximately 20° C. and a relative atmospheric humidity of approximately 100%. The plants are placed in the greenhouse at a temperature of approximately 20° C. and a relative atmospheric humidity of approximately 80%.
The test is evaluated 8 days after the inoculation. 0% means an efficacy which corresponds to that of the untreated control, while an efficacy of 100% means that no disease is observed.

Botrytis cinerea = experiment: Botrytis test (beans)/preventive; conditions: Table B1, 2 days after inoculation
Protocol: as §1, §2
To test for preventive activity, young plants are sprayed with the preparation of active compound. After the spray coating has dried on, 2 small pieces of agar covered with growth of Botrytis cinerea are placed on each leaf. The inoculated plants are placed in a darkened chamber at 20° C. and a relative atmospheric humidity of 100%.
2 days after the inoculation, the size of the lesions on the leaves is evaluated. 0% means an efficacy which corresponds to that of the untreated control, while an efficacy of 100% means that no disease is observed.

Septoria tritici = experiment: Septoria tritici-test (wheat)/preventive; conditions: 21 days after inoculation
Protocol: as §3, §4
as §5, with “suspension of Septoria tritici. The plants” for “suspension of Pyrenophora teres. The plants”, “of approximately 100% and afterwards for 60 hours at approximately 15° C. in a translucent incubation cabinet at a relative atmospheric humidity of approximately 100%. The” for “of approximately 100%. The”, “of approximately 15° C. and” for “of approximately 20° C. and”
The test is evaluated 21 days after the inoculation. 0% means an efficacy which corresponds to that of the untreated control, while an efficacy of 100% means that no disease is observed.

Sphaerotheca fuliginea = experiment: Sphaerotheca test (cucumbers)/preventive; conditions: Table E1, 7 days after inoculation
Protocol: as §1, §2
(§6) To test for preventive activity, young plants are sprayed with the preparation of active compound at the stated rate of application. After the spray coating has dried on, the plants are inoculated with an aqueous spore suspension of Sphaerotheca fuliginea. The plants are then placed in a greenhouse at approximately 23° C. and a relative atmospheric humidity of approximately 70%.
The test is evaluated 7 days after the inoculation. 0% means an efficacy which corresponds to that of the untreated control, while an efficacy of 100% means that no disease is observed.

Alternaria solani = experiment: Alternaria test (tomatoes)/preventive; conditions: 3 days after inoculation
Protocol: as §1, §2
as §6, with “Alternaria solani.” for “Sphaerotheca fuliginea.”, “an incubation cabinet” for “a greenhouse”, “20°” for “23°”, “100%.” for “approximately 70%.”
The test is evaluated 3 days after the inoculation. 0% means an efficacy which corresponds to that of the untreated control while an efficacy of 100% means that no disease is observed.

## CC1(C)N=C(c2cnc3ccccc3c2)c2ccccc2C1(F)F [b27, 3-(4,4-difluoro-3,3-dimethyl-3,4-dihydroisoquinolin-1-yl)quinoline]
Venturia inaequalis; Table F1, 0.5 ppm a.i.
  Efficacy in % found: 23%
Pyrenophora teres; 60 ppm a.i.
  Efficacy in % found: 38%
Pyrenophora teres; 240 ppm a.i.
  Efficacy in % found: 75%
Botrytis cinerea; 1 ppm a.i.
  Efficacy in % found: 60%

## CON(C(=O)c1cn(C)nc1C(F)F)C(C)Cc1c(Cl)cc(Cl)cc1Cl (centres unmarked) [b29, 3-(difluoromethyl)-N-methoxy-1-methyl-N-[1-(2,4,6-trichlorophenyl)propan-2-yl]-1H-pyrazole-4-carboxamide]
Septoria tritici; Table D1, 5 ppm a.i.
  Efficacy in % found: 94%
Sphaerotheca fuliginea; 0.25 ppm a.i.
  Efficacy in % found: 30%
Sphaerotheca fuliginea; 1 ppm a.i.
  Efficacy in % found: 30%

## Cc1nn(C)c(Nc2c(F)cc(Cl)cc2F)c1-c1ccc(F)cc1Cl [b39, N-(4-chloro-2,6-difluorophenyl)-4-(2-chloro-4-fluorophenyl)-1,3-dimethyl-1H-pyrazol-5-amine]
Alternaria solani; Table A1, 1 ppm a.i.
  Efficacy in % found: 17%
Septoria tritici; Table D1, 60 ppm a.i.
  Efficacy in % found: 50%
Septoria tritici; Table D1, 240 ppm a.i.
  Efficacy in % found: 88%

## CC(O)(Cn1cncn1)c1ccc(Oc2ccc(Cl)cc2)cc1C(F)(F)F (centres unmarked) [b40, 2-[4-(4-chlorophenoxy)-2-(trifluoromethyl)phenyl]-1-(1H-1,2,4-triazol-1-yl)propan-2-ol]
Alternaria solani; Table A1, 2.5 ppm a.i.
  Efficacy in % found: 66%
Sphaerotheca fuliginea; 2.5 ppm a.i.
  Efficacy in % found: 37%
Sphaerotheca fuliginea; 10 ppm a.i.
  Efficacy in % found: 85%

## CCC(O)(Cn1cncn1)c1ccc(Oc2ccc(Cl)cc2)cc1C(F)(F)F (centres unmarked) [b41, 2-[4-(4-chlorophenoxy)-2-(trifluoromethyl)phenyl]-1-(1H-1,2,4-triazol-1-yl)butan-2-ol]
Pyrenophora teres; 15 ppm a.i.
  Efficacy in % found: 25%
Pyrenophora teres; 60 ppm a.i.
  Efficacy in % found: 0%
Botrytis cinerea; 10 ppm a.i.
  Efficacy in % found: 36%

## CC1(C)CN=C(c2cnc3ccccc3c2)c2cccc(F)c2O1 [b45, 9-fluoro-2,2-dimethyl-5-(quinolin-3-yl)-2,3-dihydro-1,4-benzoxazepine]
Alternaria solani; Table A2, 0.5 ppm a.i.
  Efficacy in % found: 24%
Venturia inaequalis; Table F2, 1 ppm a.i.
  Efficacy in % found: 0%
Septoria tritici; Table D2, 50 ppm a.i.
  Efficacy in % found: 0%
Septoria tritici; Table D2, 200 ppm a.i.
  Efficacy in % found: 0%

## Cc1nc2c(F)cccc2cc1Oc1cccc(F)c1C(C)(C)O [b46, 2-{2-fluoro-6-[(8-fluoro-2-methylquinolin-3-yl)oxy]phenyl}propan-2-ol]
Alternaria solani; Table A2, 0.5 ppm a.i.
  Efficacy in % found: 18%
Alternaria solani; Table A2, 1 ppm a.i.
  Efficacy in % found: 24%
Venturia inaequalis; Table F2, 0.5 ppm a.i.
  Efficacy in % found: 18%
Septoria tritici; Table D2, 50 ppm a.i.
  Efficacy in % found: 0%
Septoria tritici; Table D2, 200 ppm a.i.
  Efficacy in % found: 67%

## Cc1nc2c(F)c(F)ccc2cc1Oc1cccc(F)c1C(C)(C)O [b47, 2-{2-[(7,8-difluoro-2-methylquinolin-3-yl)oxy]-6-fluorophenyl}propan-2-ol]
Alternaria solani; Table A2, 0.5 ppm a.i.
  Efficacy in % found: 9%
Alternaria solani; Table A2, 1 ppm a.i.
  Efficacy in % found: 29%
Venturia inaequalis; Table F2, 0.5 ppm a.i.
  Efficacy in % found: 30%
Septoria tritici; Table D2, 50 ppm a.i.
  Efficacy in % found: 0%
Septoria tritici; Table D2, 200 ppm a.i.
  Efficacy in % found: 67%

## CC(C)c1ccc(Cl)cc1CN(C(=O)c1c(C(F)F)nn(C)c1F)C1CC1 [compound A5, N-(5-chloro-2-isopropylbenzyl)-N-cyclopropyl-3-(difluoromethyl)-5-fluoro-1-methyl-1H-pyrazole-4-carboxamide]
Alternaria solani; Table A1, 0.5 ppm a.i.
  Efficacy in % found: 38%
Alternaria solani; Table A1, 1 ppm a.i.
  Efficacy in % found: 30%
Alternaria solani; Table A2, 0.5 ppm a.i.
  Efficacy in % found: 0%
Alternaria solani; Table A2, 1 ppm a.i.
  Efficacy in % found: 41%
Venturia inaequalis; Table F1, 0.5 ppm a.i.
  Efficacy in % found: 0%
Venturia inaequalis; Table F1, 1 ppm a.i.
  Efficacy in % found: 0%
Venturia inaequalis; Table F2, 0.5 ppm a.i.
  Efficacy in % found: 0%
Venturia inaequalis; Table F2, 1 ppm a.i.
  Efficacy in % found: 0%
Venturia inaequalis; Table F2, 2 ppm a.i.
  Efficacy in % found: 29%
Pyrenophora teres; 10 ppm a.i.
  Efficacy in % found: 13%
Botrytis cinerea; 1 ppm a.i.
  Efficacy in % found: 15%
Septoria tritici; Table D1, 5 ppm a.i.
  Efficacy in % found: 50%
Septoria tritici; Table D1, 10 ppm a.i.
  Efficacy in % found: 50%
Septoria tritici; Table D2, 10 ppm a.i.
  Efficacy in % found: 17%
Septoria tritici; Table D2, 20 ppm a.i.
  Efficacy in % found: 67%
Sphaerotheca fuliginea; 0.5 ppm a.i.
  Efficacy in % found: 30%
Sphaerotheca fuliginea; 1 ppm a.i.
  Efficacy in % found: 37%
